Assay results as given in patent US9738634B2, “Heterocyclic amide compound and herbicide” (SYNGENTA PARTICIPATIONS AG, priority 2013, dated 2017).

What was measured:
Format in all cases: in vivo
Conditions in all cases: treatment dosage 320 g/ha
oval-leafed pondweed [1] = assay: Test Example 2: weedkilling efficacy, growth period weed treatment in the submerged state; C: oval-leafed pondweed
In short: (§1)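 First, alluvial soil in pots is flooded to 4 cm and mixed seed is sown. Next, plants grow in a greenhouse at 25 to 30° C until the 1-2 leaf stage. Then diluted emulsion is applied onto the water surface at the given g/ha rate, and injury is assessed after 3 weeks.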

black-grass [2] = assay: Test Example 4: weedkilling efficacy by foliar treatment; H: black-grass
In short: (§2)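 Seeds are spot-sown into sterilized diluvial soil and covered with about 1.5 cm of soil. After 14 days' greenhouse growth at 25 to 30° C, plants are sprayed on stems and leaves with diluted emulsion at the stated g/ha rate, then scored at 3 weeks.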

Italian ryegrass [3] = assay: Test Example 3: weedkilling efficacy through soil treatment; I: Italian ryegrass
In short: (§3)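 Crop and weed responses were judged three weeks after a uniform surface spray of the water-diluted emulsion at the given g/ha rate. Seeds sat beneath about 1.5 cm of sterilized diluvial soil, and boxes stood in a greenhouse at 25 to 30° C.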

directly sown rice [4] = assay: Test Example 3: soil treatment, effect on crop; b: directly sown rice
In short: as §3

bulrush [5] = assay: Test Example 2: weedkilling efficacy, growth period weed treatment in the submerged state; B: bulrush
In short: as §1

chickweed [6] = assay: Test Example 4: weedkilling efficacy by foliar treatment; N: chickweed
In short: as §2

fig-leafed goosefoot [7] = assay: Test Example 4: weedkilling efficacy by foliar treatment; M: fig-leafed goosefoot
In short: as §2

green foxtail [8] = assay: Test Example 4: weedkilling efficacy by foliar treatment; E: green foxtail
In short: as §2

wild oat [9] = assay: Test Example 3: weedkilling efficacy through soil treatment; G: wild oat
In short: as §3

Italian ryegrass [10] = assay: Test Example 4: weedkilling efficacy by foliar treatment; I: Italian ryegrass
In short: as §2

bulrush [11] = assay: Test Example 1: weedkilling efficacy, preemergent weed treatment in the submerged state; B: bulrush
In short: (§4)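 Alluvial soil in Wagner pots flooded to 4 cm; barnyard grass, bulrush and oval-leafed pondweed seeds sown, then 2.5-leaf rice seedlings transplanted. Same day, emulsified compound diluted in water to set g/ha dosages and applied to water surface; greenhouse 25–30 °C, effect scored by criteria after 3 weeks.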

redroot pigweed [12] = assay: Test Example 3: weedkilling efficacy through soil treatment; L: redroot pigweed
In short: as §3

Indian mallow [13] = assay: Test Example 4: weedkilling efficacy by foliar treatment; K: Indian mallow
In short: as §2

green foxtail [14] = assay: Test Example 3: weedkilling efficacy through soil treatment; E: green foxtail
In short: as §3

corn [15] = assay: Test Example 3: soil treatment, effect on crop; c: corn
In short: as §3

rapeseed [16] = assay: Test Example 4: foliar treatment, effect on crop; g: rapeseed
In short: as §2

crabgrass [17] = assay: Test Example 3: weedkilling efficacy through soil treatment; D: crabgrass
In short: as §3

rapeseed [18] = assay: Test Example 3: soil treatment, effect on crop; g: rapeseed
In short: as §3

catchweed [19] = assay: Test Example 3: weedkilling efficacy through soil treatment; O: catchweed
In short: as §3

redroot pigweed [20] = assay: Test Example 4: weedkilling efficacy by foliar treatment; L: redroot pigweed
In short: as §2

black-grass [21] = assay: Test Example 3: weedkilling efficacy through soil treatment; H: black-grass
In short: as §3

fig-leafed goosefoot [22] = assay: Test Example 3: weedkilling efficacy through soil treatment; M: fig-leafed goosefoot
In short: as §3

barnyard grass [23] = assay: Test Example 1: weedkilling efficacy, preemergent weed treatment in the submerged state; A: barnyard grass
In short: as §4

chickweed [24] = assay: Test Example 3: weedkilling efficacy through soil treatment; N: chickweed
In short: as §3

soybean [25] = assay: Test Example 3: soil treatment, effect on crop; d: soybean
In short: as §3

barnyard grass [26] = assay: Test Example 2: weedkilling efficacy, growth period weed treatment in the submerged state; A: barnyard grass
In short: as §1

crabgrass [27] = assay: Test Example 4: weedkilling efficacy by foliar treatment; D: crabgrass
In short: as §2

wheat [28] = assay: Test Example 4: foliar treatment, effect on crop; e: wheat
In short: as §2

barnyard grass [29] = assay: Test Example 4: weedkilling efficacy by foliar treatment; F: barnyard grass
In short: as §2

beet [30] = assay: Test Example 3: soil treatment, effect on crop; f: beet
In short: as §3

catchweed [31] = assay: Test Example 4: weedkilling efficacy by foliar treatment; O: catchweed
In short: as §2

soybean [32] = assay: Test Example 4: foliar treatment, effect on crop; d: soybean
In short: as §2

Indian mallow [33] = assay: Test Example 3: weedkilling efficacy through soil treatment; K: Indian mallow
In short: as §3

common wind-grass [34] = assay: Test Example 4: weedkilling efficacy by foliar treatment; J: common wind-grass
In short: as §2

barnyard grass [35] = assay: Test Example 3: weedkilling efficacy through soil treatment; F: barnyard grass
In short: as §3

wild oat [36] = assay: Test Example 4: weedkilling efficacy by foliar treatment; G: wild oat
In short: as §2

birds-eye speedwell = assay: Test Example 4: weedkilling efficacy by foliar treatment; p: birds-eye speedwell
In short: as §2

directly sown rice [37] = assay: Test Example 4: foliar treatment, effect on crop; b: directly sown rice
In short: as §2

common wind-grass [38] = assay: Test Example 3: weedkilling efficacy through soil treatment; J: common wind-grass
In short: as §3

oval-leafed pondweed [39] = assay: Test Example 1: weedkilling efficacy, preemergent weed treatment in the submerged state; C: oval-leafed pondweed
In short: as §4

transplanted rice = assay: Test Example 1: preemergent weed treatment in the submerged state, effect on crop; a: transplanted rice
In short: as §4

wheat [40] = assay: Test Example 3: soil treatment, effect on crop; e: wheat
In short: as §3

corn [41] = assay: Test Example 4: foliar treatment, effect on crop; c: corn
In short: as §2

beet [42] = assay: Test Example 4: foliar treatment, effect on crop; f: beet
In short: as §2

## CC1=C(c2ccccc2)C(=O)N(C(C)(C)C(=O)Nc2cc(C(F)(F)F)cc(C)n2)CO1 [B-2-51]
oval-leafed pondweed [1]
  C (oval-leafed pondweed) weedkilling efficacy grade: 5 (weed kill ratio 90% or more, (practically complete withering))
black-grass [2]
  H (black-grass) weedkilling efficacy grade: 5 (weed kill ratio 90% or more, (practically complete withering))
Italian ryegrass [3]
  I (Italian ryegrass) weedkilling efficacy grade: 5 (weed kill ratio 90% or more, (practically complete withering))
Directly sown rice [4]
  b (directly sown rice) effect on crop grade: 3 (weed kill ratio 40% or more, less than 70%)
Bulrush [5]
  B (bulrush) weedkilling efficacy grade: 5 (weed kill ratio 90% or more, (practically complete withering))
Chickweed [6]
  N (chickweed) weedkilling efficacy grade: 4 (weed kill ratio 70% or more, less than 90%)
fig-leafed goosefoot [7]
  M (fig-leafed goosefoot) weedkilling efficacy grade: 4 (weed kill ratio 70% or more, less than 90%)
Green foxtail [8]
  E (green foxtail) weedkilling efficacy grade: 5 (weed kill ratio 90% or more, (practically complete withering))
Wild oat [9]
  G (wild oat) weedkilling efficacy grade: 5 (weed kill ratio 90% or more, (practically complete withering))
Italian ryegrass [10]
  I (Italian ryegrass) weedkilling efficacy grade: 5 (weed kill ratio 90% or more, (practically complete withering))
Bulrush [11]
  B (bulrush) weedkilling efficacy grade: 5 (weed kill ratio 90% or more, (practically complete withering))
Redroot pigweed [12]
  L (redroot pigweed) weedkilling efficacy grade: 4 (weed kill ratio 70% or more, less than 90%)
Indian mallow [13]
  K (Indian mallow) weedkilling efficacy grade: 4 (weed kill ratio 70% or more, less than 90%)
Green foxtail [14]
  E (green foxtail) weedkilling efficacy grade: 5 (weed kill ratio 90% or more, (practically complete withering))
Corn [15]
  c (corn) effect on crop grade: 1 (weed kill ratio 5% or more, less than 20%)
Rapeseed [16]
  g (rapeseed) effect on crop grade: 3 (weed kill ratio 40% or more, less than 70%)
Crabgrass [17]
  D (crabgrass) weedkilling efficacy grade: 5 (weed kill ratio 90% or more, (practically complete withering))
Rapeseed [18]
  g (rapeseed) effect on crop grade: 2 (weed kill ratio 20% or more, less than 40%)
Catchweed [19]
  O (catchweed) weedkilling efficacy grade: 3 (weed kill ratio 40% or more, less than 70%)
Redroot pigweed [20]
  L (redroot pigweed) weedkilling efficacy grade: 4 (weed kill ratio 70% or more, less than 90%)
black-grass [21]
  H (black-grass) weedkilling efficacy grade: 5 (weed kill ratio 90% or more, (practically complete withering))
fig-leafed goosefoot [22]
  M (fig-leafed goosefoot) weedkilling efficacy grade: 4 (weed kill ratio 70% or more, less than 90%)
Barnyard grass [23]
  A (barnyard grass) weedkilling efficacy grade: 5 (weed kill ratio 90% or more, (practically complete withering))
Chickweed [24]
  N (chickweed) weedkilling efficacy grade: 4 (weed kill ratio 70% or more, less than 90%)
Soybean [25]
  d (soybean) effect on crop grade: 0 (weed kill ratio 5% or less (practically no effect))
Barnyard grass [26]
  A (barnyard grass) weedkilling efficacy grade: 5 (weed kill ratio 90% or more, (practically complete withering))
Crabgrass [27]
  D (crabgrass) weedkilling efficacy grade: 5 (weed kill ratio 90% or more, (practically complete withering))
Wheat [28]
  e (wheat) effect on crop grade: 1 (weed kill ratio 5% or more, less than 20%)
Barnyard grass [29]
  F (barnyard grass) weedkilling efficacy grade: 5 (weed kill ratio 90% or more, (practically complete withering))
Beet [30]
  f (beet) effect on crop grade: 4 (weed kill ratio 70% or more, less than 90%)
Catchweed [31]
  O (catchweed) weedkilling efficacy grade: 4 (weed kill ratio 70% or more, less than 90%)
Soybean [32]
  d (soybean) effect on crop grade: 3 (weed kill ratio 40% or more, less than 70%)
Indian mallow [33]
  K (Indian mallow) weedkilling efficacy grade: 2 (weed kill ratio 20% or more, less than 40%)
Common wind-grass [34]
  J (common wind-grass) weedkilling efficacy grade: 5 (weed kill ratio 90% or more, (practically complete withering))
Barnyard grass [35]
  F (barnyard grass) weedkilling efficacy grade: 5 (weed kill ratio 90% or more, (practically complete withering))
Wild oat [36]
  G (wild oat) weedkilling efficacy grade: 5 (weed kill ratio 90% or more, (practically complete withering))
birds-eye speedwell
  P (birds-eye speedwell) weedkilling efficacy grade: 4 (weed kill ratio 70% or more, less than 90%)
Directly sown rice [37]
  b (directly sown rice) effect on crop grade: 4 (weed kill ratio 70% or more, less than 90%)
Common wind-grass [38]
  J (common wind-grass) weedkilling efficacy grade: 5 (weed kill ratio 90% or more, (practically complete withering))
oval-leafed pondweed [39]
  C (oval-leafed pondweed) weedkilling efficacy grade: 5 (weed kill ratio 90% or more, (practically complete withering))
Transplanted rice
  a (transplanted rice) effect on crop grade: 0 (weed kill ratio 5% or less (practically no effect))
Wheat [40]
  e (wheat) effect on crop grade: 0 (weed kill ratio 5% or less (practically no effect))
Corn [41]
  c (corn) effect on crop grade: 0 (weed kill ratio 5% or less (practically no effect))
Beet [42]
  f (beet) effect on crop grade: 4 (weed kill ratio 70% or more, less than 90%)
